By IC50 is commonly meant the midpoint of a concentration-inhibition curve.

Data set [1] deals with HEK293T (human embryonic kidney cells). As to the kind of experiment: MTT cell viability assay, HEK293T. The format is cell-based. The settings on record: for IC50: 48 h exposure, mean ± SD; for cytotoxic effect in HEK293T: 48 h. The procedure:
(§1) In this report, cell viability tests were conducted in HEK293T and HeLa cancer cells by means of the colorimetric 3-(4,5-dimethylthiazol-2-yl)-2,5-diphenyl tetrazolium bromide (MTT) assay after exposure for 48 h. A HeLa cancer cell line was selected since it is widely used in cytotoxicity studies. For all complexes, a 10 mM stock solution in DMSO (H2O for cisplatin) was prepared and diluted appropriately to reach the final concentration reported in the Materials and Methods. The non-cancerous HEK293T cell line was used for comparison. The IC50 values of the first-row metal complexes, the pqx ligand and cisplatin, presented herein were calculated using a dose-response model, which was obtained from sigmoidal fitting of dose-response curves.
(§2) The HEK293T cell line (immortalized human embryonic kidney cells) was obtained from the Biomedical Research Foundation Academy of Athens (BRFAA), Athens, Greece and the HeLa cell line (cervical cancer cells) was obtained from the National Centre For Scientific Research Demokritos (NCSR Demokritos), Athens, Greece.
(§3) Pqx metal complexes were diluted in stock solutions of 10 mM in dimethyl sulfoxide (DMSO). A similar concentration of cisplatin dissolved in H2O was used. HEK293T and HeLa cells were cultured in Dulbecco’s modified Eagle’s medium (DMEM) with high glucose (Biosera, Nuaille, France) supplemented with 10% fetal bovine serum at 37 °C and 5% CO2. Cells were seeded in sterile tissue culture 96-well plates (SPL Life Science, Pochon, Republic of Korea) at a density of 3000 cells per well. After 24 h, the medium was removed and replaced with fresh media containing various concentrations (0.01 μΜ, 0.1 μΜ, 1 μΜ, 10 μΜ, 25 μΜ, 40 μΜ, 55 μΜ, 70 μΜ, 85 μΜ and 100 μΜ) of the compounds to be tested and was further incubated for 48 h at 37 °C. Dimethyl sulfoxide (DMSO) was used as a vehicle at ≤1%. To measure cytotoxicity, a culture medium containing the compounds (or DMSO) was removed, and 100 μL of 0.5 mg/mL MTT reagent (Applichem, Darmstadt, Germany) diluted in DMEM was added to the cells for 3 h at 37 °C. After 3 h incubation in identical conditions, MTT was removed and 200 μL of DMSO was added. Absorbance values of formazan were measured at 540 nm using a BioTek Synergy H1 microplate reader (Agilent, Santa Clara, CA, USA). All compounds were tested in triplicate. The results were statistically analyzed using the nonlinear regression by GraphPad PRISM (Version 9).
On the technique in general: Tetrazolium assays rely on reduction of a dye to a coloured formazan, in cell work by metabolically active cells.

Data set [2] has as its system HeLa cells (cervical cancer cells). As to the kind of experiment: MTT cell viability assay, HeLa. Type of data set: cell-based, human. Conditions: for IC50: 48 h exposure, mean ± SD; for cytotoxic effect in HeLa: 48 h, concentrations up to 100 μΜ. The procedure:
as §1, §2, §3

Data set [3] relates to PAF-induced aggregation in washed rabbit platelets (WRPs). As to the kind of experiment: Inhibition of PAF-induced aggregation in washed rabbit platelets. Type of data set: cell-based. The settings on record: for IC50: washed rabbit platelets, mean ± SD, read-out: IC50 (μM) towards PAF in WRPs. How it is done: The biological experiments of PAF-induced platelet aggregation as well as the evaluation of the inhibitory effect of its synthetic compounds were performed according to thoroughly described protocols. […] Briefly, in order to obtain the washed rabbit platelets (WRPs), platelet-rich plasma was washed on Ficoll–Paque cushions and adjusted to […] platelets/mL of Tyrode’s buffer, pH 7.2. The dilution of PAF was prepared using pyrogen-free 0.15 M NaCl containing 2.5 mg/mL of crystallized bovine serum albumin, required for dispersion of PAF. The compounds under investigation were firstly dissolved in the appropriate solvent that is: DMSO for pqx (0.010 M), H2O for CrCl3 × 3H2O (0.016 M), H2O for MnCl2 × 4H2O (0.004 M), DMSO-EtOH (4/1, v/v)) for FeCl2 × 4H2O (0.014 M), H2O for CoCl2 × 6H2O (0.010 M), H2O for NiCl2 × 6H2O (0.010 M), H2O for CuCl2 × 2H2O (0.008 M), H2O for ZnCl2 (0.013 M), DMSO for 1 (0.017 M), DMSO for 2 (0.010 M0, DMSO for 3 (0.004 M), DMSO for 4 (0.002 M), DMSO for 5 (0.003 M), DMSO-EtOH-H2O (25/1/1, v/v)) for 6 (0.006 M), DMSO for 7 (0.002 M) and aliquots of these solutions were then added in solutions (2.5 mg BSA/mL) of saline.
The experiment on the inhibitory effect of each compound of interest against the washed rabbit platelets (WRPs) aggregation was carried out as per the already described method. The platelets were from male New Zealand white rabbits (about 20), individually housed in stainless steel cages in an air-conditioned room (19 ± 1 °C, 55 ± 5% humidity on a 12/12 h artificial light/dark cycle). Blood samples were drawn from the main ear artery. Microliters of PAF in a final concentration of about 10^–10 M were added to the cuvette of the aggregometer, and the height of the platelet aggregation was monitored. The platelet aggregation induced by PAF, or thrombin was measured before (considered as 0% inhibition) and after the addition of various concentrations of the examined sample, creating a linear curve of percentage inhibition (ranging from 0 to 100%) versus different concentrations of the sample. From this curve, the concentration of the sample that inhibited 50% PAF-induced aggregation was calculated, and this value was defined as IC50 (Inhibitory concentration for 50% Inhibition). Dithiothreitol-insensitive PAF choline phosphotransferase, lyso-PAF:acetyl-CoA acetyltransferase and PAF-acetylhydrolase activity assays were performed on the homogenates of rabbit leukocytes while the activity of lipoprotein-associated phospholipase A2 was assessed on plasma as previously described. The experiments were performed in a model 400 vs. aggregometer of Chrono-Log (Havertown, PA, USA) coupled to a Chrono-Log recorder at 37 °C with constant stirring at 1200 rpm. The separation of platelets was performed with centrifugations in a 3L-R Heraeus Labofuge (Hvanau, Germany), a 400R Heraeus Labofuge and an RC-5B Sorvall (Newtown, CT, USA) refrigerated super speed centrifuge. Bovine serum albumin (BSA), PAF and analytical solvents for the biological assays were purchased from Sigma. […] The measurements were performed in duplicates for each sample concentration in three different WRP preparations, in order to ensure reproducibility. All experiments were also followed by appropriate control tests of the solvent used (saline solution of BSA, DMSO aliquots in a saline solution of BSA-2.5 mg BSA/mL saline- or just in saline), in WRPs. In the aggregometer cuvette (250 to 500 μL) the overall amount of added DMSO, contained in the solution of the sample under study, is not higher than 2–3 μL. All results were expressed as mean ± standard deviation (SD). The t-test was employed to assess differences among the IC50 values of each metal complex against either the PAF- or thrombin-induced aggregation. Differences were statistically significant when the statistical p-value was smaller than 0.05.

Consider `CS(C)=O.[Cl][Cu][Cl].c1ccc(-c2cnc3ccccc3n2)nc1` [Complex 3, [Cu(pqx)Cl2(DMSO)]], for which the IC50 in data set [1] is 2.1 ± 0.52 µM; in data set [2], 27.2 ± 1.23 µM; in data set [3] it was 10.6 ± 1.4 µM.
With `[Cl][Zn][Cl].c1ccc(-c2cnc3ccccc3n2)nc1` [Complex 4, [Zn(pqx)Cl2]], in data set [1], the “cytotoxic effect in HEK293T” value was “negligible cytotoxic effects”. The IC50 in data set [1] amounted to 94.9 ± 23.2 µM; in data set [2] it was 77.8 ± 6.51 µM; in data set [3], 3.3 ± 0.3 µM.
Turning to [Co(pqx)Cl2(DMF)] [Complex 2], the figures for the IC50 in data set [1], in data set [2] and in data set [3] were 67 ± 12.6 µM, 89.1 ± 7.77 µM and 4.1 ± 0.6 µM, respectively. For the same compound, in data set [2], the “cytotoxic effect in HeLa” value is recorded as “only slightly affected”.
For [Fe(pqx)Cl2]2 [Complex 6], the IC50 was determined as 65.8 ± 13.2 µM in data set [1], 70.9 ± 2.5 µM in data set [2] and 1.79 ± 0.12 µM in data set [3].
For [Mn(pqx)(H2O)2Cl2]2 [Complex 5], the half-inhibitory concentration (IC50) stood at 28.8 ± 6.16 µM in data set [1] and 39 ± 6 µM in data set [3]. Further, in data set [2], the “cytotoxic effect in HeLa” value is “practically non-cytotoxic”.
As to [Ni(pqx)Cl2]2 [Complex 7], the IC50 in data set [1] worked out at 25.5 ± 8.61 µM; in data set [2], 82.3 ± 9.49 µM; in data set [3], 6.83 ± 0.42 µM. Besides, the “cytotoxic effect in HeLa” value in data set [2] is recorded as “only slightly affected”.
In the case of mer-[Cr(pqx)Cl3(H2O)] [Complex 1], in data set [1], the “cytotoxic effect in HEK293T” value is given as “negligible cytotoxic effects” and the IC50 came to 99 ± 6.16 µM. In data set [2], the “cytotoxic effect in HeLa” value is “only slightly affected” and the IC50 amounted to 82.8 ± 3.12 µM. Moreover, in data set [3] (ratio of thrombin and PAF IC50), the “fold more potent against PAF as opposed to thrombin-induced aggregation” value is listed as about 12 fold. In data set [3], the IC50 stood at 4.5 ± 0.9 µM.

For the origin of these results see publication PMC10574351, “First-Row Transition Metal Complexes Incorporating the 2-(2′-pyridyl)quinoxaline Ligand (pqx), as Potent Inflammatory Mediators: Cytotoxic Properties and Biological Activities against the Platelet-Activating Factor (PAF) and Thrombin” (Molecules, 2023).
